Reference: patent publication US5409926A, “AT-2 antagonist inhibition of vascular restenosis” (Merck & Co., Inc., priority 1993, dated 1995)
“Also recorded” adds a separate entry of the source.

Legend:
Format in all cases: in vivo
restenosis in the rat [1] = experiment: Effect of Compound II or Compound I pretreatment on restenosis in the rat; settings: 1 mg/kg/day i.v.; for Intimal Area / % Inhibition (intimal area): 48 h pretreatment, 14 days; for % Inhibition (intimal area): vs. control
Protocol: The Effect of Compound II on restenosis in the rat
Rats were pretreated with Compound II or Compound I for the 48 hour period prior to surgery as well as on the day of surgery (1 mg/kg/day, bolus i.v.). Drug treatment was continued at the time of angioplasty (1 mg/kg/day, continuous i.v.) for the duration of the experiments (14 days).

restenosis in the rat [2] = experiment: Effect of Compound I on restenosis in the rat: dose-response study; settings: for I/M / Intima Area / Media Area: day 14
Protocol: The effect of Compound I on restenosis in the Rat: Dose-response study
Compound I was delivered as an i.v. bolus at the time of angioplasty (0.1-1.0 mg/kg) followed by continuous i.v. infusion (0.1-1.0 mg/kg/day) until sacrifice on day 14.

restenosis in the rat [3] = experiment: Effect of AII + Compound I on restenosis in the rat; settings: for effect on formation of the neointima (in words): exogenous AII 14 ug/kg/hr i.v., with or without Compound I
Protocol: The effect of AII+Compound I on restenosis in the rat
AII was delivered by continuous i.v. infusion (14 ug/kg/hr) beginning at the time of angioplasty. Compound I was delivered as an i.v. bolus at the time of angioplasty (1.0 mg/kg) followed by continuous i.v. infusion (1.0 mg/kg/day). Rats were sacrificed on day 14.

restenosis in the rat [4] = experiment: Effect of Compound I pretreatment and Compound I-Heparin combination therapy on restenosis in the rat; settings: for Intima Area: average ± sem
Protocol: The effect of Compound I pretreatment and Compound I--Heparin Combination therapy on restenosis in the rat
Compound I was delivered as an i.v. bolus at the time of angioplasty (1.0 mg/kg) followed by continuous i.v. infusion (1.0 mg/kg/day). Some groups were pretreated with Compound I. Pretreatment (PreRx) was begun 48 hr (1 mg/kg/day, i.v. bolus) prior to angioplasty. In all cases, Compound I treatment was continued for 14 days post-angioplasty. Other groups received Compound I in conjunction with heparin (0.3 mg/kg i.v. bolus+0.3 mg/kg/hr continuous i.v.) begun at the time of angioplasty and discontinued either 2 or 4 days later. The Hep 4d and Hep 2d data from above is included.

[5] = test system: rat carotid artery model of balloon angioplasty; experiment: Enalaprilat, Compound II, Compound I in rat carotid artery model of balloon angioplasty; settings: 1 mg/kg/day continuous i.v.; for Intimal Area + sem / % Inhibition (intimal area): pretreatment (pt), 14 days; for % Inhibition (intimal area): vs. control; for inhibition of restenosis / neointima (in words): pretreatment
Protocol: AII Receptor Antagonist: The effect of enalaprilat, the AII (site 2) receptor antagonist, Compound II, and Compound II in combination with the AII (site 1) receptor antagonist, Compound I, were evaluated in the rat carotid artery model of balloon angioplasty. Rats were pretreated surgery and drag treatment was continued (1 mg/kg/day, continuous i.v.) by ALZET minipump for the duration of the experiments. Fourteen days after balloon angioplasty, the rats were sacrificed and the extent of restenosis was determined by morphometric measurements of the newly-formed intima.

[6] = test system: restenosis in the rat model; experiment: Effects of Compound II (alone, + Compound I, + heparin) and heparin on restenosis in the rat model (balloon angioplasty); settings: for Intimal Area / % Inhibition of restenosis (intimal area): 14 days after balloon angioplasty, Compounds 1 mg/kg/day i.v. with 48 h pretreatment; for Intimal Area: heparin 0.3 mg/kg bolus + 0.3 mg/kg/hr i.v. for 4 days; for % Inhibition of restenosis (intimal area): heparin 0.3 mg/kg/hr i.v. for 4 days, vs. control
Protocol: The effects of the angiotensin II (Site II) receptor antagonist Compound II on restenosis in the rat model
A vehicle treatment group was compared to rats treated with: i) the AII (AT2) receptor antagonist, Compound II; ii) Compound II plus the AII (AT1) receptor antagonist, Compound I; (iii) Compound II+heparin; and iv) heparin only. Combination treatment with Compound II and Compound I were administered for the 48 hour period prior to surgery as well as on the day of surgery at 1 mg/kg/day by bolus i.v. Compound II and Compound I treatment was continued at the time of angioplasty at 1 mg/kg/day by continuous i.v. delivery via Alzet minipumps for the duration of the experiments (14 days). Heparin was delivered as a 0.3 mg/kg i.v. bolus at the time of angioplasty followed by continous i.v. delivery at 0.3 mg/kg/hr by Alzet minipump. Heparin treatment was discontinued 4 days later. Fourteen days after balloon angioplasty, the rats were sacrificed and the extent of restenosis was determined by morphometric measurements of the newly-formed intima.

restenosis in the rat [7] = experiment: Effect of Heparin on restenosis in the rat: time course; settings: for I/M / Intima Area / Media Area: heparin 0.3 mg/kg/hr i.v.
Protocol: The effect of Heparin on restenosis in the rat: time course
Heparin (0.3 mg/kg/hr) was delivered by i.v. bolus (0.3 mg/kg) at the time of angioplasty followed by continuous i.v. delivery for 2, 4 or 14 days (0.3 mg/kg,hr). The animals were sacrificed on day 14.

[8] = PreRx (48 hr, 1 mg/kg/day), no heparin
[9] = no pretreatment, no heparin, Compound I 1.0 mg/kg/day i.v., 14 days
[10] = AII 14 ug/kg/hr i.v., Compound I 1.0 mg/kg bolus + 1.0 mg/kg/day i.v., day 14
[11] = no pretreatment, Hep 4d (0.3 mg/kg/hr i.v.)

CCc1nc2c(C)cc(C)nc2n1Cc1ccc(-c2ccccc2-c2nnn[nH]2)cc1 [Compound I, 5,7-dimethyl-2-ethyl-3-[(2'-(1H-tetrazol-5-yl)[1,1']-biphenyl-4-yl]-methyl]-3H-imidazo[4,5-b]pyridine]
inhibition of neointimal formation (in words) (restenosis in the rat [1]): may independently inhibit growth of the neointimal formation
Intimal Area (restenosis in the rat [1]): 0.121 ± 0.012 mm^2
% Inhibition (intimal area) (restenosis in the rat [1]): 41%
I/M (restenosis in the rat [2]; 0.1 mg/kg/day i.v.): 1.64 ± 0.09
Intima Area (restenosis in the rat [2]; 0.1 mg/kg/day i.v.): 0.212 ± 0.013 mm^2
Media Area (restenosis in the rat [2]; 0.1 mg/kg/day i.v.): 0.129 ± 0.003 mm^2
I/M (restenosis in the rat [2]; 0.3 mg/kg/day i.v.): 1.47 ± 0.19
Intima Area (restenosis in the rat [2]; 0.3 mg/kg/day i.v.): 0.148 ± 0.014 mm^2
Media Area (restenosis in the rat [2]; 0.3 mg/kg/day i.v.): 0.103 ± 0.009 mm^2
I/M (restenosis in the rat [2]; 1.0 mg/kg/day i.v.): 1.24 ± 0.04
Intima Area (restenosis in the rat [2]; 1.0 mg/kg/day i.v.): 0.149 ± 0.009 mm^2
effect on formation of the neointima (in words) (restenosis in the rat [3]): inhibits this stimulation
I/M (restenosis in the rat [4]; [8]): 1.01 ± 0.07
Media Area (restenosis in the rat [4]; [8]): 0.124 ± 0.006 mm^2
Intima Area (restenosis in the rat [4]; [8]): 0.125 ± 0.010 mm^2
I/M (restenosis in the rat [4]; [9]): 1.19 ± 0.04
Media Area (restenosis in the rat [4]; [9]): 0.125 ± 0.006 mm^2
Intima Area (restenosis in the rat [4]; [9]): 0.149 ± 0.009 mm^2
reduction in the neointimal area (in words) (restenosis in the rat [4]; pretreatment for 2 days or co-administration of heparin): reduction in the neointimal area when compared with no pretreatment
Intimal Area + sem [5]: 0.121 ± 0.012 mm^2
% Inhibition (intimal area) [5]: 41%
inhibition of restenosis / neointima (in words) [5]: independently inhibit neointima in this model

C[C@H](N[C@@H](CCc1ccccc1)C(=O)O)C(=O)N1CCC[C@H]1C(=O)O [enalaprilat]
Intimal Area + sem [5]: 0.133 ± 0.016 mm^2
% Inhibition (intimal area) [5]: 35%
inhibition of restenosis / neointima (in words) [5]: inhibit restenosis in this model; also recorded: independently inhibit neointima in this model

CCc1nc2ccc(N(Cc3ccccc3)C(=O)c3cccs3)cc2c(=O)n1Cc1ccc(-c2ccccc2-c2nn[nH]n2)cc1 [Compound II]
Intimal Area [6]: 0.097 ± 0.027 mm^2
% Inhibition of restenosis (intimal area) [6]: 53%
effect upon neointimal formation (in words) ([6]; rat carotid model, administration alone): significant effect upon neointimal formation
inhibition of neointimal formation (in words) (restenosis in the rat [1]): may independently inhibit growth of the neointimal formation
Intimal Area (restenosis in the rat [1]): 0.097 ± 0.027 mm^2
% Inhibition (intimal area) (restenosis in the rat [1]): 53%
inhibition of neointimal formation (in words) (restenosis in the rat [2]; 0.1-1.0 mg/kg/day i.v.): inhibits neointimal formation in a dose dependent manner
Intimal Area + sem [5]: 0.097 ± 0.027 mm^2
% Inhibition (intimal area) [5]: 53%
inhibition of restenosis / neointima (in words) [5]: inhibit restenosis in this model; also recorded: independently inhibit neointima in this model

Angiotensin II (DRVYIHPF; Angiotensin-2; UniProt P01019 25-32, looked up) [AII, powerful arterial vasoconstrictor]
I/M (restenosis in the rat [3]; [10]): 1.92 ± 0.19
Intima Area (restenosis in the rat [3]; [10]): 0.348 ± 0.047 mm^2
Media Area (restenosis in the rat [3]; [10]): 0.176 ± 0.008 mm^2
effect on formation of the neointima (in words) (restenosis in the rat [3]): stimulates the formation of the neointima by almost two fold

heparin
Intimal Area [6]: 0.158 ± 0.016 mm^2
% Inhibition of restenosis (intimal area) [6]: 23%
I/M (restenosis in the rat [4]; Hep 2d alone): 1.14 ± 0.13
Media Area (restenosis in the rat [4]; Hep 2d alone): 0.130 ± 0.008 mm^2
Intima Area (restenosis in the rat [4]; Hep 2d alone): 0.144 ± 0.012 mm^2
I/M (restenosis in the rat [4]; [11]): 1.17 ± 0.10
Media Area (restenosis in the rat [4]; [11]): 0.136 ± 0.010 mm^2
Intima Area (restenosis in the rat [4]; [11]): 0.158 ± 0.016 mm^2
I/M (restenosis in the rat [7]; 2 days): 1.14 ± 0.13
Intima Area (restenosis in the rat [7]; 2 days): 0.144 ± 0.012 mm^2
Media Area (restenosis in the rat [7]; 2 days): 0.130 ± 0.008 mm^2
I/M (restenosis in the rat [7]; 4 days): 1.17 ± 0.10
Intima Area (restenosis in the rat [7]; 4 days): 0.158 ± 0.016 mm^2
Media Area (restenosis in the rat [7]; 4 days): 0.136 ± 0.010 mm^2
I/M (restenosis in the rat [7]; 14 days): 0.77 ± 0.05
Intima Area (restenosis in the rat [7]; 14 days): 0.098 ± 0.008 mm^2
Media Area (restenosis in the rat [7]; 14 days): 0.128 ± 0.004 mm^2
effect on formation of neointima (in words) (restenosis in the rat [7]; heparin alone, 2, 4 or 14 days): decreases the formation of neointima; also recorded: greatest degree of inhibition was observed when heparin was given for 14 days
